In brackets after ≈: the same amount, converted by molar mass. Several values for one entry are separate records, joined by “and”; a condition that tells them apart may be missing. Equal entries are not always repeated. Where two headings read alike, the source gives them in different places.
Key:
[1] = Cytotoxicity evaluation by MTT assay in Vero cells; assay type: cell-based, African green monkey; settings: African green monkey
Method: (§1) The cytotoxicity of ethanolic extracts of stems, leaves, fractions, and substances isolated from the C. americana species was evaluated by the colorimetric MTT method in Vero cell lines (derived from African green monkey kidneys) and MRC-5 (derived from normal human lung tissue).
(§2) Cell suspensions (Vero and MRC-5) were distributed in 96-well microplates containing 6.0 × 10^4 cells/well. The plates were incubated in a humidified 5% CO2 atmosphere at 37 °C for 24 h. Samples solubilized in dimethyl sulfoxide (DMSO) were diluted in culture medium supplemented with 1% SFB [48, 49]. Substance dilutions ranged from 800 to 0.125 µg/mL. After the formation of the cell monolayer on the surface of the wells, the culture medium was removed, and 100 μL of diluted sample solutions along with 100 μL of 1% SFB-enriched culture medium were added, and the plates were incubated under the same atmospheric condition. Seventy-two hours after the addition of samples, the culture medium was removed, and 28.0 μL of MTT solution (2.0 mg/mL in PBS) was added to each well, and the plates were incubated again for 120 min. At the end of this period, 132 μL of DMSO was added to all wells, and the plates were shaken on a plate shaker for 15 min to dissolve the formed formazan. Formazan quantification obtained by reducing tetrazolium salt in viable cells was performed on a Victor^TM X3 microplate reader® (PerkinElmer, Waltham, MA, USA) using the WorkOut 2.5 software at 490 nm. Cell multiplication was compared with cell control. Cell toxicity was expressed in terms of 50% cytotoxic concentration (CC50). The cytotoxic percentage was calculated as [(A-B)/A] × 100, where A and B are the optical densities at 490 nm (OD490) from the wells where untreated (A) and treated (B) cells are present, respectively.
(§3) Data from cytotoxicity and antiviral assays were evaluated according to their means and standard deviations. […] These analyses were performed using the GraphPad Prism 5.04 statistical package® (GraphPad Software, Boston, MA, USA).

[2] = Cytotoxicity evaluation by MTT assay in MRC-5 cells; assay type: cell-based, human; settings: human
Method: as §1, with “tissue). The results of CC50 are described in Table 2.” for “tissue).”
as §2
(§4) Data from cytotoxicity and antiviral assays were evaluated according to their means and standard deviations. The cytotoxic concentration at 50% and the effective concentration at 50% were determined compared with the control obtained from nonlinear regression. […]

Zika virus [3] = assay: Screening for anti-Zika virus activity by MTT colorimetric technique in infected Vero cells; assay type: cell-based; settings: for EC50: ZIKV-infected Vero cells, MTT; for SI Vero: ratio of CC50 (Vero) to EC50
Method: After the determination of optimal noncytotoxic use concentrations, assays were performed, treating ZIKV-infected Vero cells with eight concentrations from the noncytotoxic concentrations for each sample. The results of the 50% effective concentration (EC50—concentration of the substance capable of reducing the viral cytopathic effect by 50%) and selectivity index (SI) are described in Table 2.
It was performed according to the methodology described by Brandão et al.. Sample stock solutions were prepared in DMSO (dimethyl sulfoxide) and evaluated at noncytotoxic concentrations. Vero cell monolayers were cultured in 96-well plates (6 × 10^4 cells per well). After 24 h of incubation in 5% CO2 at 37 °C, the culture medium (DMEM 5% SFB) was removed, and 100.0 μL of sample dilutions were added to each well along with 100.0 μL of the viral suspension. Then, the cultures were incubated in a humid atmosphere containing 5% CO2 at 37 °C for 72 h. Cell viability was assessed by the MTT colorimetric technique. The supernatant was removed, and then 28.0 μL of an MTT solution (2.0 mg/mL in PBS) was added to each well. The plates were incubated for 2 h at 37 °C, and after this incubation time, 132.0 μL DMSO was added to each well to dissolve the formazan crystals. The plates were stirred for 15 min (Shaker New Brunswick Scientific C24), and the optical density was determined at 490 nm (OD490) in a microplate reader.
The effective concentration that has 50% antiviral effect, or 50% effective concentration (EC50), is expressed as the concentration that promotes the protection of 50% of treated cells from destruction caused by the virus. The percentage of protection was calculated as [(AB)/CB)] × 100, where A, B, and C are the OD490 of the wells, in which are present treated and infected (A), untreated and infected (B), and untreated and non-infected cells (C), respectively.
Data from cytotoxicity and antiviral assays were evaluated according to their means and standard deviations. The cytotoxic concentration at 50% and the effective concentration at 50% were determined compared with the control obtained from nonlinear regression. These analyses were performed using the GraphPad Prism 5.04 statistical package® (GraphPad Software, Boston, MA, USA).

Zika virus [4] = assay: In vitro cytopathic effect inhibition assay in ZIKV-infected Vero cell monolayer; assay type: cell-based; settings: Vero cells, MOI = 1, treated after infection, quercetin 20 µg/mL, leaf extract 85 µg/mL, photographed after 48 h
Method: This can be seen by the destruction and morphological alterations of the cells, such as rounding of cells, formation of lumps, and changes in cell refringence, especially when compared with the uninfected and untreated cell monolayer (Figure 4A).
Figure 4 Antiviral effect against Zika virus in Vero cells treated with ethanol extract of leaves and quercetin. Vero cells were infected with ZIKV, treated with ethanol extract of leaves/quercetin, and photographed after 48 h of infection. (A) Uninfected and untreated cells, (B) infected cells, (C) cells uninfected and treated with ethanol extract of leaves (85 µg/mL), (D) cells infected and treated with ethanol extract of leaves (85 µg/mL), (E) cells uninfected and treated with quercetin (20 µg/mL), (F) cells infected and treated with quercetin (20 µg/mL). Magnification, 100x.
In order to confirm the anti-ZIKV activity observed in the antiviral MTT assay, the Vero cell monolayer (9.5 × 10^6 cells per well) was infected by viral suspensions with titers of 1.0 × 10^7 TCID50/mL, (MOI = 1), Zika virus, during 1 h for the viral adsorption. Afterwards, the viral suspension was removed and the wells were washed with PBS. Then, the wells were treated with the active concentration of the compound (20 μg/mL) and ethanolic extract of leaves of C. americana (85 μg/mL). […]

Vero cells = assay: Cytotoxicity evaluation by MTT assay in Vero cells; assay type: cell-based, African green monkey; settings: MTT, 72 h, n = 3
Method: as §1, §2, §3

MRC-5 cells = assay: Cytotoxicity evaluation by MTT assay in MRC-5 cells; assay type: cell-based, human; settings: MTT, 72 h, n = 3
Method: as §1, with “tissue). The results of CC50 are described in Table 2.” for “tissue).”
as §2, §4

[5] = Zika virus, 72 h, n = 3, read-out: EC50 (converted)

## O=c1c(O[C@@H]2O[C@H](CO)[C@@H](O)[C@H](O)[C@H]2O)c(-c2ccc(O)c(O)c2)oc2cc(O)cc(O)c12 [Quercetin-3-O-glucoside]
[1]
  CC50 at 72 h: > 100 µg/mL and > 216 µM
[2]
  CC50 at 72 h: > 100 µg/mL and > 216 µM
Zika virus [3]; 72 h, n = 3
  EC50: Inactive
Zika virus [3]; [5]
  EC50: > 100 µg/mL

## O=c1c(O)c(-c2ccc(O)c(O)c2)oc2cc(O)cc(O)c12 [Quercetin]
[1]; MTT, 72 h, n = 3, read-out: CC50 Vero (converted)
  CC50 at 72 h: 71.3 µg/mL and 236 µM
Zika virus [3]; [5]
  EC50: 18.6 µg/mL and 61.6 µM
Zika virus [3]; Zika virus, read-out: EC50, inhibition of the viral cytopathic effect (abstract, unit inferred)
  EC50: 18.6 ± 2.8 µg/mL (≈ 61.5 µM)
Zika virus [3]
  SI Vero: 3.8
Zika virus [4]
  protection of ZIKV-infected cell monolayer from viral cytopathic effect: protect the cells from a virus infection

## NC(=O)c1ncn([C@@H]2O[C@H](CO)[C@@H](O)[C@H]2O)n1 [Ribavirin, reference compound]
[1]; Vero cells, MTT, 72 h, n = 3, read-out: CC50 Vero (converted)
  CC50 at 72 h: 370.4 ± 1.2 µg/mL (≈ 1520 µM)
Zika virus [3]; [5]
  EC50: 94.5 µg/mL and 387 µM

## Quercetin-3-O-hexosylgallate
Vero cells
  CC50: 496 µM
  CC50 Vero: 305.6 ± 1.4 µg/mL
MRC-5 cells
  CC50: > 162 µM
  CC50 MRC-5: > 100 µg/mL
Zika virus [3]; ratio of CC50 (MRC-5) to EC50
  SI MRC-5: >0.7
Zika virus [3]
  SI Vero: 2.0

— publication PMC10054362, “Anti–Zika Virus Activity and Isolation of Flavonoids from Ethanol Extracts of Curatella americana L. Leaves” (Molecules, 2023)
